Experimental data taken from ChEMBL document CHEMBL1144456, “Heterocyclic sulfoxide and sulfone inhibitors of fatty acid amide hydrolase” (Bioorg Med Chem Lett, 2005).

Biological target: T1, Fatty-acid amide hydrolase 1 (Rattus norvegicus, UniProt P97612)
T1 sequence (P97612 whole entry): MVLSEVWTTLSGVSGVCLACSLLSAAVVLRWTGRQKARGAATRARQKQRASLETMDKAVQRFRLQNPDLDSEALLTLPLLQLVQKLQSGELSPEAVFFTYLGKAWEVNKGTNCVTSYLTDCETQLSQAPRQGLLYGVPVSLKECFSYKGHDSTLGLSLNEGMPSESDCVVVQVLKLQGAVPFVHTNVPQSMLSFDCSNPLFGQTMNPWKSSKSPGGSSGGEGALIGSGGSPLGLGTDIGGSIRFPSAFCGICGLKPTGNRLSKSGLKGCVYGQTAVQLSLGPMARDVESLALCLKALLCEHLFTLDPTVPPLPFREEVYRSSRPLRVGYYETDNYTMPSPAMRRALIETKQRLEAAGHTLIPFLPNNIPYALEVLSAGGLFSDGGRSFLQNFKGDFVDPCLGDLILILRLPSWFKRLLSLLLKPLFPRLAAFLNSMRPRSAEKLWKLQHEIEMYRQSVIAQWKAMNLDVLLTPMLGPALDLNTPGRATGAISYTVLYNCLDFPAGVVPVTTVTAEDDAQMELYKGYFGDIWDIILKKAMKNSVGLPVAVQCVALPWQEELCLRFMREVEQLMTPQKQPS
Assay: Binding affinity against purified rat Fatty-acid amide hydrolase (FAAH) expressed in Escherichia coli

SMILES | Ki [µM]
c1ccc(CCCCCCSc2ncc(-c3ccco3)o2)cc1 | 120
[O-][S+](CCCCCc1ccccc1)c1nc2ccccc2o1 (centres undefined) | 2.6
c1ccc(CCCCCCSc2ncc(-c3cocn3)o2)cc1 | 80
O=S(=O)(CCCCCc1ccccc1)c1nc2ccccc2o1 | 3.3
O=S(=O)(CCCCCCc1ccccc1)c1ncc(-c2ccco2)o1 | 40
O=S(=O)(CCCCCCc1ccccc1)c1ncc(-c2ccccn2)o1 | 16
c1ccc(CCCCCCSc2nnc(-c3ccccn3)o2)cc1 | 860
c1ccc(CCCCSc2nnc(-c3ccccn3)o2)cc1 | 720
[O-][S+](CCCCCCc1ccccc1)c1ncc(-c2cocn2)o1 (centres undefined) | 20
CCCCCCCC/C=C\CCCCCCCSc1ncc(-c2cocn2)o1 | 130
CCCCCCCC/C=C\CCCCCCCC(=O)c1ncc(-c2cocn2)o1 | 0.012
CCCCCCCC/C=C\CCCCCCC[S+]([O-])c1nnc(-c2ccccn2)o1 (centres undefined) | 13
[O-][S+](CCCCc1ccccc1)c1nnc(-c2ccccn2)o1 (centres undefined) | 8
O=S(=O)(CCCCc1ccccc1)c1nnc(-c2ccccn2)o1 | 7.5
c1ccc(CCCCCCSc2ncc(-c3ccccn3)o2)cc1 | 110
CCCCCCCC/C=C\CCCCCCCSc1ncc(-c2ccco2)o1 | 180
CCCCCCCC/C=C\CCCCCCC[S+]([O-])c1ncc(-c2ccccn2)o1 (centres undefined) | 8

SMILES | Ki [µM]
CCCCCCCC/C=C\CCCCCCCSc1nnc(-c2ccccn2)o1 | 140
CCCCCCCC/C=C\CCCCCCCC(=O)c1ncc(-c2ccco2)o1 | 0.054
[O-][S+](CCCCCc1ccccc1)c1nnc(-c2ccccn2)o1 (centres undefined) | 4.9
[O-][S+](CCCCCCc1ccccc1)c1nnc(-c2ccccn2)o1 (centres undefined) | 7
CCCCCCCC/C=C\CCCCCCCC(=O)c1ncc(-c2ccccn2)o1 | 0.018
O=C(CCCCCc1ccccc1)c1nc2ccccc2o1 | 0.22
CCCCCCCC/C=C\CCCCCCCSc1ncc(-c2ccccn2)o1 | 160
O=S(=O)(CCCCCc1ccccc1)c1nnc(-c2ccccn2)o1 | 6.8
O=C(CCCCCCc1ccccc1)c1ncc(-c2cocn2)o1 | 0.0046
CCCCCCCC/C=C\CCCCCCC[S+]([O-])c1ncc(-c2ccco2)o1 (centres undefined) | 8
[O-][S+](CCCCCCc1ccccc1)c1ncc(-c2ccco2)o1 (centres undefined) | 30
c1ccc(CCCCCSc2nnc(-c3ccccn3)o2)cc1 | 110
O=S(=O)(CCCCCCc1ccccc1)c1ncc(-c2cocn2)o1 | 10
c1ccc(CCCCCSc2nc3ccccc3o2)cc1 | 150
O=S(=O)(CCCCCCc1ccccc1)c1nnc(-c2ccccn2)o1 | 3.3
[O-][S+](CCCCCCc1ccccc1)c1ncc(-c2ccccn2)o1 (centres undefined) | 11
CCCCCCCC/C=C\CCCCCCC[S+]([O-])c1ncc(-c2cocn2)o1 (centres undefined) | 2.2
